The values below come from patent EP3705574A1, “SPLIT LUCIFERASE, AND HIGHLY SENSITIVE VITAMIN D RECEPTOR LIGAND DETECTION METHOD USING SAME” (Public University Corporation Toyama Prefectural University, priority 2017, dated 2019).

Data set [1] has as its target T1, LucN-NHPMLMNLLKDN-(GGGGS)×3-LBD-LucC biosensor (split firefly luciferase, LXXLL sequence, hVDR LBD 121-427 aa) (Homo sapiens, UniProt P11473).
T1 construct: expressed in transfected cells; host or cells: COS-7
T1 sequence (P11473 121-427): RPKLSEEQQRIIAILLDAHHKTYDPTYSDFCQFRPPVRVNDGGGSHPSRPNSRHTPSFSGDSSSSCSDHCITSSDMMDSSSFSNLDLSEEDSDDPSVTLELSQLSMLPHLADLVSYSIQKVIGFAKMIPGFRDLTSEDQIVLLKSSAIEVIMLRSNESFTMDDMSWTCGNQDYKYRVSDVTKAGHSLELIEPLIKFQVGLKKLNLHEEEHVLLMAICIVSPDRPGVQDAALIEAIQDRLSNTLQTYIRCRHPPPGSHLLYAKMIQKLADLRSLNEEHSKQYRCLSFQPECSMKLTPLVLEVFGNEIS
The experiment in a line: Luciferase light emission in COS-7 cells expressing single molecular type biosensor. The data set is classed as cell-based. The following applies: 0-1000 nM added, relative light intensity after 90 minutes.

Data set [2] concerns double molecular type N29+N31 biosensor (6×His LBD(121-427 aa)-SmBiT + 6×His LgBiT-NHPMLMNLLKDN). The protocol:
Several of the obtained E.coli colony were selected, inoculated into 2 mL of LB liquid culture medium (containing 100 µg/mL of ampicillin), and shaking culture was performed at 37°C and 200 rpm for 12 hours. 2 mL of E.coli solution was succeeded in 500 mL of LB liquid culture medium (containing 100 µg/mL of ampicillin) and cultivated at 37°C to OD600=0.4, and then 1 mM isopropyl-1-thio-β-D-galactopyranoside [IPTG (NACALAI TESQUE, INC.) was added and cultivated at 15°C for 3 hours to express proteins. After cultivation, centrifugal separation was performed at 4°C, 5000×g for 10 minutes to collect bacterial cells. Bacterial bodies were suspended in the solution containing 25 mM Tris-HCl, pH 7.4, 10 mM DTT, and protease cocktails of inhibitor (NACALAI TESQUE, Inc.) and then ultrasonic crushing was performed in ice for 15 sec×7 times. Thereafter, centrifugal separation was performed at 4°C, 20,000×g for 30 minutes, and supernatant was collected to obtain biosensor protein solutions N29, N30, N31 and N32.
Thereafter, 10 µl of light emission substrate solution (Nano-Glo Live Cell Assay System, Promega) was added and measured. Ethanol (EtOH) brought in, which is used as a solvent for VDR ligand, was at a final concentration of 1%. Microplate reader Infinite 200 Pro (TECAN) was used as an instrument for measuring light emission.
After plating double molecular type N29+N31 to 96 well plate, 0-50 nM of 25(OH)D3 was added and incubated for 10 minutes at room temperature.
After plating double molecular type N29+N31 to 96 well plate, 0-10 nM of 25(OH)D3 was added and incubated for 10 minutes at room temperature.
After plating double molecular type N29+N31 to 96 well plate, 0-10000 nM calcitroic acid was added and incubated for 10 minutes at room temperature.

Turning to `C=C1CC[C@H](O)C/C1=C/C=C1\CCC[C@]2(C)[C@@H]([C@H](C)CCCC(C)(C)O)CC[C@@H]12` [25(OH)D3, 25 hydroxyvitamin D3], the “concentration reaching maximal light emission” value in data set [1] was determined as 1000 nM. Also, the Detection limit in data set [2] (0-10 nM 25(OH)D3, 10 minutes after light emission substrate solution, in vitro) is reported as 1 pM. Besides, in data set [2] (0-50 nM 25(OH)D3, in vitro), the “concentration reaching maximal increase of light emission” value is recorded as “around 50 nM”. Besides, in data set [2] (nanoluciferase biosensor protein, 10 min, 1 pM), the “relative change of light emission” value is “about 1.5 fold”.
Turning to `C=C1/C(=C\C=C2/CCC[C@]3(C)[C@@H]([C@H](C)CC(=O)O)CC[C@@H]23)C[C@@H](O)C[C@@H]1O` [calcitroic acid], the “concentration required for increasing light emission” value in data set [2] (0-10000 nM calcitroic acid, 10 minutes after light emission substrate solution, in vitro) was not below 10 nM. Further, the “VDR affinity relative to 1α,25(OH)2D3” value in data set [2] (stated with the N29+N31 biosensor evaluation) is given as 1/1000.
